In patent US6011000A, “Compositions for the treatment of blood disorders” (priority 1995, dated 2000):

Tests used:
[1] = test system: BFU-e (burst forming unit-erythroid); assay: BFU-e stimulation (colony growth) in cultured peripheral blood mononuclear cells; assay type: cell-based; settings: Homo sapiens, PBMC, read-out: more BFU-e colonies from the same number of mononuclear cells than control cultures
Procedure: Peripheral blood was collected from normal volunteers and patients with anemia due to sickle cell disease or thalassemia Mononuclear cells were isolated by Ficoll-Hypaque (Pharmacia Biotech; Piscataway, N.J.) centrifugation and cultured in Iscove's Modified Dulbecco's Media (IMDM; GIBCO/BRL; Grand Island, N.Y.) supplemented with 10% fetal calf serum, 300 μg/ml glutamine, 3 units/ml IL 3 (Amgen; Thousand Oaks, Calif.), and 2 units/ml erythropoietin (Terry Fox Labs; Vancouver, B.C.). Chemical compounds were obtained from Sigma Chemical (St. Louis, Mo.) or Aldrich Chemical (Milwaukee, Wis.), unless otherwise indicated, and formulated into pharmaceutical compositions by dissolving in aqueous solutions of media or sterile water pH adjusted to about 7.4. Solutions were sterilized by passage at least once through 0.22 micron Nalgene filters and added to cell cultures at final concentrations that are pharmaceutically achievable in vivo (typically between about 0.1 mM to 2.0 MM). Cells were incubated with compounds for between 13-14 days at 37° C. in humidified 5% CO2, and fed and passed, as necessary. Colony growth, proportion of fetal globin-expressing cells and amounts of fetal globin production were assayed. Results are presented in Table 1 as BFU-e stimulation (colony growth). […]

[2] = test system: fetal globin (gamma globin); assay: Fetal globin expression in erythroid progenitor cells from cord blood; assay type: cell-based, human
Procedure: Compositions were tested for activity in inducing fetal globin expression and protein production in erythroid progenitor cells cultured from human cord blood and analyzed as described by S. P. Perrine et al. (Blood 74: 454-60, 1989). Briefly, mononuclear cells were cultured in IMDM with 30% fetal calf serum and 2 units erythropoietin per ml to induce erythroid differentiation. Colonies were harvested on day 12-13, incubated with radio-labelled (^3 H) leucine, and further incubated in leucine-free media, still in the presence of compounds, overnight. Globin composition in the erythroid cells was analyzed by laser densitometry of electrophoretically separated globin chains stained with Coomassie blue, and by autoradiography. Treated cells were incubated for 12-13 days (Table 2, Experiments A and B) or overnight (Table 2, Experiment C) in the presence of the indicated compounds and compared to untreated control cells cultured from the same human subject.

[3] = test system: proximal promoter of the gamma globin gene (K562 cells); assay: Gamma globin promoter-neomycin transfection (61 bp proximal promoter), G418-resistant colonies; assay type: cell-based, human
Procedure: Gamma globin promoter-neomycin transfection experiments were performed to determine if compounds act by inducing an increase in activity from the proximal promoter of the gamma globin gene. Constructs containing 61 bp of the proximal gamma globin promoter were linked to the reporter gene for neomycin phosphotransferase (NEO) and transfected into permissive K562 cells by electroporation. After 18 hours, transfected cells were passed at 10^3 cells per well into RPMI media containing G418 (neomycin), which kills all mammalian cells unless the gene for NEO is expressed. Phenoxyacetic acid and thiophenoxyacetic acid were added to some of the cells plated into the RPMI/G418 media at concentrations of 1 mM. Cultures were incubated for 8 weeks with media changes performed as needed. Colonies which survived and grew in the presence of G418 were scored and the number of such colonies was compared to those generated when the cells were plated into G418 media without the test compounds. […] There was a greater than 6-fold (>600%) increase in proportions of colonies surviving the presence of phenoxyacetic acid (6/24 wells) and a three-fold (300%) increase in survival in the presence of thiophenoxyacetic acid (3/24 wells).

MCF-7 cells = assay: Growth/viability of human mammary carcinoma cells; assay type: cell-based; settings: MCF7, 96 h, 4 days, read-out: growth decrease of MCF-7 cells
Procedure: Human mammary carcinoma cells (MCF-7) were cultured alone (controls) and with arginine butyrate or isobutyramide for 4 days. Viability was assayed by FACS after incubation with a fluorescent dye taken up by viable cells (FIG. 6). Growth was decreased by 50% with isobutyramide at 1.0 mM, about 60% with arginine butyrate at 0.5 mM, and greater than 90% with arginine butyrate at 1.0 mM.

[4] = test system: γ-globin promoter fragment containing FRE-γ1; assay: Gel mobility shift assay with FRE-γ1 promoter fragment; set-up: species or system human
[5] = test system: γ-globin promoter (-61 construct, K562 cells); assay type: cell-based, human
Source text: Functional assay underscores the important role of FRE-γ1 in γ-globin gene expression in K562 cells. To ascertain whether the FRE elements of the γ-globin promoter that were identified by in vivo footprinting were indeed involved in arginine butyrate inducibility for γ-globin gene expression, a series of 5' deletion constructs of the γ-globin promoter, extending from -256 to -61, were constructed and linked them to the NEO gene. Activity of the NEO gene of these constructs, in response to arginine butyrate treatment, was examined by transfecting these reporters into K562 cells. In K562 cells, a construct driven by 256 bp of promoter was able to direct NEO activity expression, resulting in colony formation. […] Deletion to position -61 reduced promoter activity to 33-40% of the activity seen with the -256 bp construct.

fetal globin production = settings: cited from earlier work
γ-globin mRNA = settings: patients with globin disorders; cited from earlier work
[6] = Homo sapiens, K562, 1344 h, read-out: increase in proportions of colonies surviving
[7] = erythroblast nuclear extracts of thalassemic patients (FIG. 17)

| Compound | activation at 100 µM [1] | Gamma/(Gamma + Beta) ([2]; Exp. A, 0.1 mM, 12-13 days, untreated 76.0%) | Gamma/(Gamma + Beta) ([2]; Exp. B, 0.5 mM, 12-13 days, untreated 25.4%, 27.5%) | Gamma/(Gamma + Beta) ([2]; Exp. C, 0.5 mM, overnight, untreated 52.0%) | colonies surviving ([3]; 1 mM, 8 weeks in G418, none of 24 wells without compound) | activation at 1000 µM [3, 6] | fold induction at 1000 µM [3, 6] | inhibition at 500 µM (MCF-7 cells; 0.5 mM) | inhibition at 1000 µM (MCF-7 cells; 1.0 mM) | new binding activity (activator) [4, 7] | other binding activity (repressor) [4, 7] | activator and repressor bands in non-responder ([4]; patient with sickle cell anemia who did not respond) | induction of construct activity [5] | stimulation of fetal globin production (fetal globin production) | levels of γ-globin mRNA (γ-globin mRNA) |
| --- | --- | --- | --- | --- | --- | --- | --- | --- | --- | --- | --- | --- | --- | --- | --- |
| O=C(O)COc1ccccc1 [PAA, Phenoxyacetic acid] | 135% | 82.0% | 38.8% | 55.6% | 6/24 | > 600% | > 6 | – | – | – | – | – | – | – | – |
| CCCC(=O)O [AB, arginine butyrate] | – | – | – | – | – | – | – | ~60% | > 90% | a new binding activity appeared | disappeared | no increase in the intensity of the activator band or loss of the repressor band | 2.5-4 fold | effective in stimulating fetal globin production | increase in response to butyrate treatment |
